# Earlier results in patent US7595079B2, “Nutritional conjunctive support therapy for recovery in animals following stress or illness” (Bomac Vets Plus, Inc., priority 2005, dated 2009).
# Key:
# jejunum villus = settings: weaning of pigs; target value ≧339
# small intestinal crypt = settings: E. coli induced diarrhea in calves; target value ≦100
# jejunum crypt = settings: malnourished rats; target value ≦150
smiles,measurement,setting,value
NC(=O)CC[C@H](N)C(=O)O [Glutamine],Jejunum Villus Height,jejunum villus,358 um
same,Mid plus Distal small intestinal Crypt width (mean % of baseline control),small intestinal crypt,92.2 mean % of baseline control
same,Jejunum Crypt depth,jejunum crypt,134 um
